Assays:
[1] = molecular target: T1, MMP2 (Homo sapiens, UniProt P08253); assay: In vitro fluorometric MMP inhibition assay (SensoLyte 520 MMP-2); assay type: biochemical; settings: for IC50: mean ± SD of three independent experiments in duplicate; for Selectivity MMP1/MMP2: ratio of IC50 values, MMP1 IC50 divided by MMP2 IC50
T1 construct: purchased AnaSpec, San Jose, USA
T1 sequence (P08253 110-660): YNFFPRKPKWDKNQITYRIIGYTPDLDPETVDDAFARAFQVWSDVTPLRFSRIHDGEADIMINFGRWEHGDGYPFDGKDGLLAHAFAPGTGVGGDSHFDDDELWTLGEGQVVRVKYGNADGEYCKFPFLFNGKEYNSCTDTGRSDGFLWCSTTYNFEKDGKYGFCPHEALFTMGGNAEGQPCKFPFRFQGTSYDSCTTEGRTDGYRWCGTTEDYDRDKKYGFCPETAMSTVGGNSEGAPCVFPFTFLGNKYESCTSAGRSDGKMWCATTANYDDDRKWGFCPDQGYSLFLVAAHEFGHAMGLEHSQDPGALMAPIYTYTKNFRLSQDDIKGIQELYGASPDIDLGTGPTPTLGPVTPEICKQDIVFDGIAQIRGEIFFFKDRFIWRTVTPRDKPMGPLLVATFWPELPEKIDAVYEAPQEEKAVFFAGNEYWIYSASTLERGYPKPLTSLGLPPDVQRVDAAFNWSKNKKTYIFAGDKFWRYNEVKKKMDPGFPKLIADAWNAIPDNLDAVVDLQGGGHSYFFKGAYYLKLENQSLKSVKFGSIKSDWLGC
Method: (§1) The inhibitory potency and selective binding of MMP-ligands was investigated by examining their capacity to block MMP1, MMP2 and MMP9 activity, using in vitro fluorometric assays (SensoLyte^TM 520 MMP-1, SensoLyte^TM 520 MMP-2, SensoLyte^TM 520 MMP-9; AnaSpec, San Jose, USA). Assay buffer was warmed to 37°C and used to dilute the reference inhibitor N-isobutyl-N-(4-methoxyphenylsulfonyl)glycyl hydoxamic acid (NNGH 1:100), calibration standard (1:50), substrate and enzyme (1:60). Components were loaded into a 96-well plate. MMP ligands 10a-d were also aliquoted to the respective 96-well plate at varying concentrations (10pM, 100pM, 1nM, 10nM, 100nM, 1μM, 10 μM and 100 μM), followed by incubation at 37°C for 30 minutes. Reactions were initiated by addition of the substrate to the respective wells, after which fluorescence generated was measured using a microplate reader (Synergy HT Multi-detection Microplate Reader, BioTek, […]) continuously for 30 minutes at 60 second intervals. Data analysis was conducted using Sigma Plot and Microsoft Excel.

[2] = molecular target: T2, MMP9 (Homo sapiens, UniProt P14780); assay: In vitro fluorometric MMP inhibition assay (SensoLyte 520 MMP-9); assay type: biochemical; settings: for IC50: mean ± SD of three independent experiments in duplicate; for Selectivity MMP1/MMP9: ratio of IC50 values, MMP1 IC50 divided by MMP9 IC50
T2 construct: purchased AnaSpec, San Jose, USA
T2 sequence (P14780 94-707, species assumed): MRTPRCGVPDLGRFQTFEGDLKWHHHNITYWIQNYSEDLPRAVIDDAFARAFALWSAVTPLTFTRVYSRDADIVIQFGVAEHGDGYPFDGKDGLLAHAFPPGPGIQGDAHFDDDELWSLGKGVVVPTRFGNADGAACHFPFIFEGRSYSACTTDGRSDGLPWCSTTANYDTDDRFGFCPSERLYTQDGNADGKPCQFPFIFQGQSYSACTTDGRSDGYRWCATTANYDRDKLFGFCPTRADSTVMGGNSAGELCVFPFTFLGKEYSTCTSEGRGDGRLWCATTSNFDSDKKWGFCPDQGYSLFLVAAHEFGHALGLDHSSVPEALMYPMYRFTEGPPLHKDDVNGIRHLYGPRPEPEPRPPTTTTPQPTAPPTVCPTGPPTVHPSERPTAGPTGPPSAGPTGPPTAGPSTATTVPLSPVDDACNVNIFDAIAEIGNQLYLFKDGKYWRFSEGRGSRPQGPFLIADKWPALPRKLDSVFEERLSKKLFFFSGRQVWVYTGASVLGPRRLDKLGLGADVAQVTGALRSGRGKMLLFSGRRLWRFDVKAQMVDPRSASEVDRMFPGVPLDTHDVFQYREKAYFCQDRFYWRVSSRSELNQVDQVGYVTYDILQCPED
Method: as §1

[3] = molecular target: T3, MMP1 (Homo sapiens, UniProt P03956); assay: In vitro fluorometric MMP inhibition assay (SensoLyte 520 MMP-1); assay type: biochemical; settings: mean ± SD of three independent experiments in duplicate
T3 construct: purchased AnaSpec, San Jose, USA
T3 sequence (P03956 100-469): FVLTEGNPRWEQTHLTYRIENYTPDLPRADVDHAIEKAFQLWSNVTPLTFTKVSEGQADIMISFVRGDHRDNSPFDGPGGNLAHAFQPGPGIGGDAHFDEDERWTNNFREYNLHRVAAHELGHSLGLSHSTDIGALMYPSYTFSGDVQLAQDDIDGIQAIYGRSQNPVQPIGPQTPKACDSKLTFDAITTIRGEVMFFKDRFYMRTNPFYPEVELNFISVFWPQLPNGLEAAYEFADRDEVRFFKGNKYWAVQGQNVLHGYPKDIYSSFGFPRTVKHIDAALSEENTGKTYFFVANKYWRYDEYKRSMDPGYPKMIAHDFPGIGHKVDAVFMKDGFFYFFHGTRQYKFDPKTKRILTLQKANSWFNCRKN
Method: as §1

[4] = tested on: atherosclerotic lesions containing MMP2 and MMP9; assay: In vivo binding to atherosclerotic plaques (ex vivo storage phosphor imaging of aortic arch, MMP2/9 immunohistochemistry); parameters: species or system ApoE-/- mice; settings: 40 MBq i.v.
Method: To investigate selective binding of [^123I]10c to MMP2/9 found in atherosclerotic lesions, we examined the distribution of the [^123I]10c in 8–10 week old female ApoE-/- mice (n = 5, Charles River) that were fed a high fat Western diet (15% fat, 0.25% cholesterol; Arie Blok Diervoeding, Netherlands) for 4 weeks. These animals subsequently developed atherosclerotic plaques. 40 MBq of [^123I]10c were administered by intravenous injection in the tail vein and allowed to circulate for […]. Animals were euthanized by bleeding via PBS infusion. The aortic arch was excised and 10 μm serial sections were made. Aortic arch sections were placed on a phosphor imaging plate (Fuji) and the amount of radioactivity was measured using a storage phosphor imaging apparatus (Typhoon Trio; GE Healthcare Life Sciences). Sections were then stained with hematoxylin/eosin staining, or used for MMP2 and MMP9 detection. Prior to incubation with monoclonal goat-anti-mouse MMP2 (R&D Systems) and rabbit-anti-mouse MMP9 (Abcam), the sections were heated to improve antigen retrieval. Rabbit-anti-goat secondary antibodies (DAKO) were utilized on the MMP2 sections. Thereafter, all sections were probed with the PowerVision anti-rabbit polymer, conjugated to horseradish peroxidase (Immunologic), to reveal positive primary antibody binding by means of chromogen conversion of 3,3’-diaminobenzidine (DAB), followed by nuclear counterstaining with hematoxylin. Histological sections were imaged with a bright-field microscope. […]
To validate the efficacy of [^123I]10c as an appropriate tracer for detection of atherosclerotic plaques, we examined the in vivo uptake of this ligand in ApoE-/- mice that were fed a high-fat diet. […] 40 MBq of [^123I]10c was administered intravenously and allowed to circulate for 3 hours, after which the animals were euthanized and the aortic arch was excised for measuring radioactivity by storage phosphor imaging.
Fig 6 Binding of [^123I]10c to atherosclerotic lesions containing MMP2 and MMP9. […] The region with highest apparent radioactivity has been outlined. […]

[5] = In vivo biodistribution after intravenous injection in healthy mice; settings: healthy C57BL/6 mice
Method: All experiments were approved by the institutional committee for animal experiments at the Academic Medical Center. C57BL/6 female mice (14–16 week) were purchased from Harlan and housed in the animal care facility at the Academic Medical Center. Animals were anesthetized using 126 mg ketamine, 100 μg dexdomitor, 500 μg atropine, 7.5 mL NaCl 0.9% of which 0.015 mL/g body weight was administered by intraperitoneal injection. In order to investigate the in vivo biodistribution of MMP ligand [^123I]10c, 4 MBq was administered intravenously in the tail vein and allowed to circulate for either 5, 15, 30, 60 minutes or 2, 3, 4, 6 and 24 hours (n = 3–4 animals for each time point). At the end of each circulation time, animals were sacrificed by bleeding through phosphate buffered saline solution (PBS) perfusion. After the animals were sacrificed, whole blood was collected by cardiac puncture, and selected organs were excised (heart, lungs, liver and kidneys). The organs were weighed and radioactivity was measured using a scintillation counter (TRT-CARB 2000CA, Perkin Elmer 1987). The measured radioactivity was expressed as the percentage of the injected dose per gram of tissue per gram of body weight (% ID/g/g).
The biodistribution of [^123I]10c was investigated following intravenous infusion of 4 MBq in healthy C57BL/6 mice. Following the bolus injection, the compound was allowed to circulate for 5, 15, 30, 60 minutes, 2, 3, 4, 6 and 24 hours. […] In the blood, stabilization of the compound was reached after at least 1 hour of circulation.
Fig 5 Biodistribution of [^123I]10c following intravenous infusion in healthy mice (n = 3–4 /group). Injected dose (ID) of radioactivity was measured in fat (A), muscle (B), liver (C), kidney (D), spleen (E), blood (F), heart (G) and lung (H) at varying time-points after injection. Values shown are mean ± SEM.

Row | Structure (SMILES) | IC50 [1] | Selectivity MMP1/MMP2 [1] | IC50 [2] | Selectivity MMP1/MMP9 [2] | IC50 [3] | circulation time until stabilization of the compound in blood ([5]; 4 MBq i.v. bolus) | tissues with highest radioactivity (biodistribution) ([5]; 4 MBq i.v., 5 min to 24 h) | accumulation in fat (biodistribution) ([5]; 4 MBq i.v., 5 min to 24 h, relative to other tissues) | tracer uptake in diseased regions of the vessel wall ([4]; ApoE-/- mice on high-fat diet, storage phosphor imaging) | uptake in atherosclerotic lesions of the aortic arch ([4]; ApoE-/- mice on high-fat diet, storage phosphor imaging of excised aortic arch) | relation of tracer uptake to MMP2 and MMP9 immunohistochemical staining in lesions ([4]; ApoE-/- mice, consecutive aortic arch sections)
1 | O=C(O)CN(CC(=O)NO)S(=O)(=O)c1ccc(Oc2ccc(F)cc2)cc1 [Compound 10b] | – | 3.60 x 10^4 | – | 1.74 x 10^4 | – | – | – | – | – | – | –
2 | O=C(O)CN(CC(=O)NO)S(=O)(=O)c1ccccc1 [Compound 4a, 2-(N-(2(hydroxyamino)-2-oxoethyl)phenylsulfonamido) acetic acid] | 39 ± 0.16 nM | 1.31 | 14 ± 1.05 nM | 3.64 | 51 ± 0.1 nM | – | – | – | – | – | –
3 | O=C(O)CN(CC(=O)NO)S(=O)(=O)c1ccc(Br)cc1 [Compound 4d, 2-(4-bromo-N-(2-hydroxyamino)-2-oxoethyl) phenylsufonamido acetic acid] | 19 ± 0.19 nM | 3.32 | 23 ± 0.21 nM | 2.74 | 63 ± 0.13 nM | – | – | – | – | – | –
4 | O=C(O)CN(CC(=O)NO)S(=O)(=O)c1ccc(Oc2ccc([123I])cc2)cc1 [[^123I]10c, ([4-(4-[^123I]Iodophenoxy)benzenesulphonyl]hydroxycarbamoylmethylamino) acetic acid] | – | – | – | – | – | at least 1 hour | highest in the liver and blood | lowest | relatively high | detectable | co-localizing
5 | O=C(O)CN(CC(=O)NO)S(=O)(=O)c1ccc(I)cc1 [Compound 4c, 2-(4-Iodo-N-(2-hydroxyamino)-2-oxoethyl) phenylsufonamido acetic acid] | 27 ± 1 nM | 2.19 | 11 ± 1.14 nM | 5.36 | 59 ± 0.17 nM | – | – | – | – | – | –
6 | O=C(O)CN(CC(=O)NO)S(=O)(=O)c1ccc(Oc2ccccc2)cc1 [Compound 10a, ([4-Phenoxy-benzenesulphonyl]-hydroxycarbamoylmethyl-amino) acetic acid] | – | 884 | – | 387 | – | – | – | – | – | – | –
7 | O=C(O)CN(CC(=O)NO)S(=O)(=O)c1ccc(Cl)cc1 [Compound 4e, 2-(4-chloro-N-(2-hydroxyamino)-2-oxoethyl)phenylsufonamido acetic acid] | 41 ± 0.19 nM | 1.49 | 18 ± 0.16 nM | 3.39 | 61 ± 0.11 nM | – | – | – | – | – | –

Now from value to compound, other results behind:

Row | IC50 [1] | Selectivity MMP1/MMP2 [1] | IC50 [2] | Selectivity MMP1/MMP9 [2] | IC50 [3] | circulation time until stabilization of the compound in blood ([5]; 4 MBq i.v. bolus) | tissues with highest radioactivity (biodistribution) ([5]; 4 MBq i.v., 5 min to 24 h) | accumulation in fat (biodistribution) ([5]; 4 MBq i.v., 5 min to 24 h, relative to other tissues) | Structure (SMILES) | tracer uptake in diseased regions of the vessel wall ([4]; ApoE-/- mice on high-fat diet, storage phosphor imaging) | uptake in atherosclerotic lesions of the aortic arch ([4]; ApoE-/- mice on high-fat diet, storage phosphor imaging of excised aortic arch) | relation of tracer uptake to MMP2 and MMP9 immunohistochemical staining in lesions ([4]; ApoE-/- mice, consecutive aortic arch sections)
8 | 0.87 ± 0.4 nM | 1.05 x 10^3 | 1.95 ± 1.1 nM | 467 | 910 ± 560 nM | – | – | – | O=C(O)CN(CC(=O)NO)S(=O)(=O)c1ccc(Oc2ccc(I)cc2)cc1 [Compound 10c, ([4-(4-Iodo-phenoxy)-benzenesulphonyl]-hydroxycarbamoylmethyl-amino) acetic acid] | – | – | –
9 | 12 ± 0.17 nM | 6.25 | 21 ± 0.19 nM | 3.57 | 75 ± 0.15 nM | – | – | – | O=C(O)CN(CC(=O)NO)S(=O)(=O)c1ccc(F)cc1 [Compound 4b, 2-(4-fluoro-N-(2-hydroxyamino)-2oxoethyl)phenylsufonamido acetic acid] | – | – | –
10 | 7.64 ± 1.43 nM | 173 | 1.61 ± 1.41 nM | 820 | 1320 ± 790 nM | – | – | – | O=C(O)CN(CC(=O)NO)S(=O)(=O)c1ccc(Oc2ccc(Br)cc2)cc1 [Compound 10d, ([4-(4-Bromo-phenoxy)-benzenesulphonyl]-hydroxycarbamoylmethyl-amino) acetic acid] | – | – | –
